Data published in patent US8278293B2, “Diazo bicyclic Smac mimetics and the uses thereof” (The Regents of the University of Michigan, priority 2007, dated 2012).
Where two headings read alike, the source gives them in different places. Square brackets hold non-standard residues; d marks the D form. Peptide text beside a SMILES is read from it. * marks the point of attachment. 5FAM = O=C1OC2(c3ccc(O)cc3Oc3cc(O)ccc32)c2ccc(C(=O)*)cc21; Abu = CC[C@H](N)C(=O)O

How the values were obtained:
[1] = molecular target: T1, cIAP1 BIR3 domain (Homo sapiens, UniProt Q13490); assay: FP competitive binding assay to cIAP1 BIR3; settings: FP tracer; read-out: affinity of tracer for cIAP1
T1 construct: cIAP1 BIR3 domain (residues 253-363); His-tag

[2] = molecular target: T2, cIAP2 BIR3 domain (Homo sapiens, UniProt Q13489); assay: FP competitive binding assay to cIAP2 BIR3; settings: FP tracer; read-out: affinity of tracer for cIAP2
T2 construct: cIAP2 BIR3 domain (residues 238-349); His-tag

[3] = molecular target: T3, ML-IAP BIR3 domain (Homo sapiens, UniProt Q96CA5); assay: FP competitive binding assay to ML-IAP BIR3; settings: FP tracer; read-out: affinity of tracer for ML-IAP
T3 construct: ML-IAP BIR3 domain (residues 63-179), fused to a His-tag; His-tag
T3 sequence (Q96CA5 63-179): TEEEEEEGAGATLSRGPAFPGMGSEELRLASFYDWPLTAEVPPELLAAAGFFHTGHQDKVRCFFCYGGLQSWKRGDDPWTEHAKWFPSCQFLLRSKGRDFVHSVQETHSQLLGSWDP
Protocol: In order to test the binding ability of conformationally constrained Smac mimetics to other IAP proteins (ML-IAP, cIAP1, and cIAP2) binding assay conditions were developed and optimized. The recombinant cIAP1 BIR3 domain (residues 253-363), cIAP2 BIR3 domain (residues 238-349), and ML-IAP BIR3 domain (residues 63-179), fused to a His-tag, were used in the binding assays. Competitive binding assays for other IAP proteins were performed similarly as that described for XIAP BIR3. […] The following protein concentration and tracer were used in the competitive assay: 10 nM cIAP1 and 2 nM SM5F, 25 nM cIAP2 and 2 nM SM5F, 300 nM ML-IAP and 5 nM SM5F
The competitive binding curves of SM-406 and SM-428 to BIR^3 domains of four members of IAP proteins were determined using a fluorescence-polarization-based binding assay. The IAP proteins tested include: (A) XIAP; (B) cIAP1; (C) cIAP2; (D) ML-IAP.

[4] = system: MDA-MB-231 human breast cancer cell line; assay: Cell growth inhibition, WST-8 assay, MDA-MB-231; format: cell-based; settings: for IC50: Homo sapiens, MDA-MB-231, 96 h; for cellular activity in MDA-MB-231 compared with SM-122: relative to SM-122
Protocol: (§1) The effect of the compounds of the present invention on the growth of various cancer cell lines was tested. Cells were seeded in 96-well flat bottom cell culture plates at a density of 3000 cells/well with a tested compound and incubated at 37° C. in an atmosphere of 95% air and 5% CO2 for 4 days. […] Dojindo Molecular Technologies, Inc., Gaithersburg, Md.). […] The absorbance of the samples was measured at 450 nm using a ULTRA Tecan Reader (Molecular Device). […] The ability of SM-406 to inhibit cell growth as a single agent was tested in the MDA-MB-231 breast cancer cell line, SK-OV-3 and OVCAR-4 ovarian cancer cell lines and SK-MeI-2 melanoma cancer cell line. Cells were treated for 4 days. Cell growth was determined using a WST-based assay.

[5] = system: SK-OV-3 ovarian cancer cell line; assay: Cell growth inhibition, WST-8 assay, SK-OV-3; format: cell-based; settings: for IC50: Homo sapiens, SK-OV-3, 96 h; for cellular activity in SK-OV-3 compared with SM-122: relative to SM-122
Protocol: as §1

[6] = system: breast cancer MDA-MB-231 cell line; assay: Induction of cell death, trypan blue exclusion, MDA-MB-231; format: cell-based
Protocol: (§2) The ability of YP-337 to induce cell death was tested in the breast cancer MDA-MB-231 and ovarian cancer SK-OV-3 cell lines (Table 4). Cells were treated with YP-337 for 48 hours and cell viability was determined using the trypan blue exclusion assay.

[7] = system: ovarian cancer SK-OV-3 cell line; assay: Induction of cell death, trypan blue exclusion, SK-OV-3; format: cell-based
Protocol: as §2

[8] = system: SK-Mel-2 melanoma cancer cell line; assay: Cell growth inhibition, WST-based assay, SK-Mel-2; settings: Homo sapiens, SK-MEL-2, 96 h; single agent, 4 days, FIG. 8
Protocol: (§3) The ability of SM-406 to inhibit cell growth as a single agent was tested in the MDA-MB-231 breast cancer cell line, SK-OV-3 and OVCAR-4 ovarian cancer cell lines and SK-MeI-2 melanoma cancer cell line. Cells were treated for 4 days. Cell growth was determined using a WST-based assay.

[9] = system: OVCAR-4 ovarian cancer cell line; assay: Cell growth inhibition, WST-based assay, OVCAR-4; settings: Homo sapiens, OVCAR-4, 96 h; single agent, 4 days, FIG. 8
Protocol: as §3

[10] = system: HL-60 leukemia cell line; assay: Cell growth inhibition, WST-based assay, HL-60; settings: Homo sapiens, HL-60, 96 h; single agent, 4 days, FIG. 9
Protocol: (§4) The ability of SM-406 to inhibit cell growth as a single agent was tested in the HL-60 and SR leukemia cell lines. Cells were treated for 4 days. Cell growth was determined using a WST-based assay.

[11] = system: SR leukemia cell line; assay: Cell growth inhibition, WST-based assay, SR; settings: 96 h; single agent, 4 days, FIG. 9
Protocol: as §4

[12] = system: MDA-MB-231 breast cancer xenograft; assay: MDA-MB-231 breast cancer xenograft model in nude mice; format: in vivo
Protocol: The ability of SM-406 (AT-406) to act as anti-tumor agent was tested in the MDA-MB-231 breast cancer xenograft (nude mice) model. SM-406 (AT-406) was administered qd×5 per week for two weeks. […] Body weight loss was less in weekly dosing (<5%) compared to the other dosing schedules.

[13] = molecular target: T4, XIAP BIR3 (Homo sapiens, UniProt P98170); assay: Fluorescence polarization (FP) based competitive binding assay to XIAP BIR3; set-up: human XIAP (residues 241-356) fused to His-tag; His-tag; settings: for binding affinity to XIAP BIR3 compared with SM-122: relative to carbocyclic analog SM-122
Target sequence in this assay (P98170 241-356): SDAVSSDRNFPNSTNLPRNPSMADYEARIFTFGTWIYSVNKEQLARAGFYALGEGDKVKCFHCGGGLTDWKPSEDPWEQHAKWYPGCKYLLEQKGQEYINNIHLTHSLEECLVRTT

[14] = molecular target: T4, XIAP BIR3; settings: background statement; cited from earlier work
Target sequence in this assay (P98170 241-356 limits assumed): as the sequence (P98170 241-356) above

T1 sequence (Q13490 253-363): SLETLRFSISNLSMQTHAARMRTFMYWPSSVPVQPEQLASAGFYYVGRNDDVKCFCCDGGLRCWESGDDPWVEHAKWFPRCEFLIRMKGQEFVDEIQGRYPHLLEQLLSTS
T2 sequence (Q13489 238-349): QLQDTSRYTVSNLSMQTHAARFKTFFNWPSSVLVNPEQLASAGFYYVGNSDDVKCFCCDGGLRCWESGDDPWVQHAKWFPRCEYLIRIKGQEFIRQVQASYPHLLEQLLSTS

In the case of `CC[C@H](N)C(=O)N[C@@H](CCCNC(=N)N)C(=O)N1CCC[C@H]1C(=O)N[C@@H](Cc1ccccc1)C(=O)N[C@@H](CCCCNC(=O)c1ccc2c(c1)C(=O)OC21c2ccc(O)cc2Oc2cc(O)ccc21)C(N)=O` [SM5F, AbuRPF-K-(5-Fam)-NH2] (H-[Abu]RPFK(5FAM)-NH2; N-terminus assumed), the Kd [1] is reported as 0.0041 µM, the Kd [2] is reported as 0.0066 µM and the Kd [3] is reported as 0.16 µM.

In the case of `CN[C@@H](C)C(=O)N[C@H]1CN(C(=O)Cc2ccccc2)CC[C@H]2CC[C@@H](C(=O)NC(c3ccccc3)c3ccccc3)N2C1=O` [SM-337], the IC50 ([4]; read-out: MDA-MB-231 IC50 (μM)) is reported as under 1 µM, the “cellular activity in MDA-MB-231 compared with SM-122” value [4] is reported as “equal to or better than that of SM-122” and the IC50 ([5]; read-out: SK-OV-3 IC50 (μM)) is reported as under 1 µM. The “cellular activity in SK-OV-3 compared with SM-122” value [5] was “equal to or better than that of SM-122”, the “Approximate % of dead cells after 48 h, MDA-MB-231” value (“Approximate % … MDA-MB-231” for short) ([6]; 0.1 nM) was about 10% and the “Approximate % … MDA-MB-231” value ([6]; 1 nM) was about 35%. The “Approximate % … MDA-MB-231” value ([6]; 10 nM) was about 60%, the “Approximate % … MDA-MB-231” value ([6]; 100 nM) was about 75% and the “Approximate % of dead cells after 48 h, SK-OV-3” value (from here on “Approximate % … SK-OV-3”) ([7]; 0.1 nM) was about 20%. For the same molecule, the “Approximate % … SK-OV-3” value ([7]; 1 nM) was about 40%, the “Approximate % … SK-OV-3” value ([7]; 10 nM) was about 65% and the “Approximate % … SK-OV-3” value ([7]; 100 nM) was about 75%.

Work on `CN[C@@H](C)C(=O)N[C@H]1CN(C(=O)CC(C)C)CC[C@H]2CC[C@@H](C(=O)NC(c3ccccc3)c3ccccc3)N2C1=O` [SM-406] yielded an IC50 ([4]; 4 days, WST-8, read-out: MDA-MB-231 IC50) of under 1 µM, an IC50 ([4]; single agent, 4 days, FIG. 8, read-out: IC50, cell growth, MDA-MB-231) of 0.082 µM and an IC50 ([5]; 4 days, WST-8, read-out: SK-OV-3 IC50) of under 1 µM. For the same molecule, the IC50 ([5]; single agent, 4 days, FIG. 8, read-out: IC50, cell growth, SK-OV-3) was 0.238 µM, the IC50 [8] was 6.64 µM and the IC50 [9] was 0.926 µM. For the same molecule, the IC50 [10] was 0.058 µM, the IC50 [11] was 7.29 µM and the body weight loss ([12]; 200 mg/kg, weekly dosing) was under 5%. For the same molecule, the dose-dependent weight loss ([12]; 100 and 200 mg/kg, qd×5 per week for two weeks) was “up to 11%” and the IC50 ([13]; FP binding, XIAP BIR3 30 nM, SM5F 5 nM) was under 0.1 µM.

For `CN[C@@H](C)C(=O)N[C@H]1CN(C)CC[C@H]2CC[C@@H](C(=O)NC(c3ccccc3)c3ccccc3)N2C1=O` [YP-245P3], the IC50 ([4]; read-out: MDA-MB-231 IC50 (μM)) was over 1 µM, the “cellular activity in MDA-MB-231 compared with SM-122” value [4] was “less than that of SM-122” and the “cellular activity in SK-OV-3 compared with SM-122” value [5] was “less than that of SM-122”. The “binding affinity to XIAP BIR3 compared with SM-122” value [13] was “less than that of SM-122”.

With `CN[C@@H](C)C(=O)N[C@H]1CN(Cc2ccccc2)CC[C@H]2CC[C@@H](C(=O)NC(c3ccccc3)c3ccccc3)N2C1=O` [YP-246P] the IC50 ([4]; read-out: MDA-MB-231 IC50 (μM)) was over 1 µM, the “cellular activity in MDA-MB-231 compared with SM-122” value [4] was “less than that of SM-122” and the “cellular activity in SK-OV-3 compared with SM-122” value [5] was “less than that of SM-122”. For the same molecule, the “binding affinity to XIAP BIR3 compared with SM-122” value [13] was “less than that of SM-122”.

B1: mature Smac protein: mature Smac/DIABLO polypeptide, endogenous inhibitor of XIAP (protein, UniProt Q9NR28 22-239, looked up)
Diablo IAP-binding …: LCVPVVANFKKRCFSELIRPWHKTVTIGFGVTLCAVPIAQKSEPHSLSSEALMRRAVSLVTDSTSTFLSQTTYALIEAITEYTKAVYTLTSLYRQYTSLLGKMNSEEEDEVWQVIIGARAEMTSKHQEYLKLETTWMTAVGLSEMAAEAAYQTGADQASITARNHIQLVKLQVEEVHQLSRKAETKLAEAQIEELRQKTQEEGEERAESEQEAYLRED
For B1, the Kd [14] is listed as 0.42 µM.
